Key:
[1] = tested on: G-quadruplex oligonucleotide Fmyc27T (NHE III1 promoter region of c-myc oncogene); assay: FRET melting of G-quadruplex oligonucleotide Fmyc27T with ligands; type: binding; settings: for ΔTm (° C.) Fmyc27T/ds26 (° C.): helquat 1 μmol·l^−1, oligonucleotide 0.2 μmol·l^−1, 50-fold excess of double-stranded competitor ds26; for ΔTm (° C.) Fmyc27T: helquat 1 μmol·l^−1, oligonucleotide 0.2 μmol·l^−1, without competitor
From the text: (§1) To determine the degree of in vitro interactions of helquats with G-quadruplex(es), the oligonucleotides containing the guanine-rich sequences of human telomere (F21T) and NHE III1 promoter region of c-myc oncogene (Fmyc27T) were used. Both oligonucleotides capable of forming an intramolecular G-quadruplex were end-labeled with suitable fluorophores so as to form donor-acceptor FRET pair (5′-FAM and 3′-TAMRA). If the oligonucleotide is folded into the structure of the G-quadruplex, donor is in close proximity of acceptor and radiationless energy transfer to the acceptor occurs. With increasing temperature of the reaction mixture G-quadruplex structure gradually denatures and thus the donor and acceptor (FAM-TAMRA) drift apart. This leads to an increase in fluorescence of donor (FAM) and a decrease in fluorescence of acceptor (TAMRA).
(§2) The result of measurement is the curve of dependence of the intensity of fluorescence of the donor on the temperature. If the G-quadruplex is stabilized by ligand, melting temperature will increase. Melting temperature of G-quadruplex corresponds to the temperature when 50% of the original amount of the folded G-quadruplex is denatured. The measurement outcome is the difference in the melting temperatures (ΔTm) of the G-quadruplex alone and the G-quadruplex stabilized by ligand. In case of Fmyc27T experiments were performed in cacodylate buffer (10 mmol·l^−1, pH=7.2) with KCl (5 mmol·l^−1) and LiCl (95 mmol·l^−1) oligonucleotide and in case of F21T oligonucleotide in cacodylate buffer (10 mmol·l^−1, pH=7.2) with KCl (25 mmol·l^−1) and LiCl (75 mmol·l^−1).
(§3) Both oligonucleotides were denatured for 5 minutes at 95° C. and subsequently allowed to cool to room temperature (3 hours) in the switched-off thermoblock. The final oligonucleotide concentration in the reaction mixture was 0.2 μmol·l^−1. Test helquats were present at concentrations of 1 μmol·l^−1. The total reaction volume was 30 μl. The melting temperature of the oligonucleotides alone (without the presence of helquats) under these conditions was 58.1±0.2° C. for F21T and 64.7±0.4° C. for Fmyc27T. For determining the selectivity of binding of helquats to G-quadruplex in comparison with the double-stranded DNA, 50-fold excess of double-stranded DNA ([…] unlabeled competitor ds26 forming a hairpin) is added to the reaction mixture. After the addition to the reaction mixture ds26 competes with labeled oligonucleotide (Fmyc27T or F21T) for ligand binding. […] Melting temperature of oligonucleotides alone in the presence of the competitor is 59.4±0.5° C. for F21T and 66.3° C.±0.6° C. for Fmyc27T.
(§4) Fluorescence of FAM donor was measured using real-time PCR apparatus Opticon 2 (excitation 470-505 nm and emission 523-543 nm) in temperature increments of 0.5° C. in the range 25 to 95° C. Evaluation of the sigmoid curves of fluorescence intensity dependent on the temperature were performed in GraphPad Prism 5 (GraphPad Software, Inc., USA). Using nonlinear five parametric regression the inflection point on the curve was calculated that corresponds to the melting temperature (Tm) of the G-quadruplex under the given conditions. The values were obtained from at least three independent measurements.

[2] = tested on: G-quadruplex oligonucleotide F21T (human telomere); assay: FRET melting of G-quadruplex oligonucleotide F21T with ligands; type: binding; settings: for ΔTm (° C.) F21T/ds26: helquat 1 μmol·l^−1, oligonucleotide 0.2 μmol·l^−1, 50-fold excess of double-stranded competitor ds26; for ΔTm (° C.) F21T: helquat 1 μmol·l^−1, oligonucleotide 0.2 μmol·l^−1, without competitor
From the text: as §1, §2, §3, §4

[3] = tested on: c-Myc27 oligonucleotide G-quadruplex; assay: ECD melting curve of c-Myc27 oligonucleotide G-quadruplex with ligands; type: binding; settings: ECD at 263 nm; molar ratio oligonucleotide:ligand 1:1 (5 μmol l^−1 each); Li+-cacodylate buffer
Description: ECD spectra were measured on J-815 spectrometer (Jasco, Japan). Measurement settings (Tab. 3), spectra saving and background subtraction was performed in a Spectra Manager software (Jasco, Japan).
For measurement of the temperature dependencies the cuvettes in the cuvette compartment were placed in the Peltier module, the temperature was controlled by the Spectra Manager software. Melting curves were measured at a wavelength which corresponds to the maximum difference in signal intensity of ECD spectra of oligonucleotide at 25 and 95° C., as shown in FIG. 1. Before and after measuring the melting curves, ECD spectra in extreme temperatures were measured, in order to verify the stability of the studied system.
Processing of the spectra was performed using Spectra Manager (Jasco, Japan). The resulting spectra were obtained from the measured sample spectrum after subtraction of background spectrum, which was spectrum of the solvent. Measuring of sample spectrum and background was conducted under identical conditions. ECD spectra are reported as ellipticity, labeled in the CD figures [mdeg], whose numerical value is associated with dimensionless circular dichroism ΔA (CDv=32980 ΔAv). This CD notations preserves conventions of the international journals in which articles from the field are published.
Stock solution of […] was prepared from c-Myc27 oligonucleotide by dissolution in H2O. The cuvette of 1 mm thickness was filled with 7 μl of oligonucleotide solution and 133 μl of Li^+-cacodylate buffer. Oligonucleotide solution in the cuvette was overlayed with mineral oil to measure temperature dependencies without concentration changes due to evaporation of the solvent at higher temperatures.
From stock solutions of the racemic ligands in DMSO at a concentration of […] solutions were prepared at a concentration of 140 μmol l^−1 by dissolving in H2O. Ligands were added to the solution of oligonucleotide under buffer/mineral oil interface using Hamilton microsyringe (5 μl of solution at a concentration of […]). The resulting molar ratio of oligonucleotide:ligand was 1:1.
The cuvette filled with c-Myc27 oligonucleotide solution in Li^+-cacodylate buffer (cc-Myc27=5 μmol l^−1) was first heated for 5 minutes at 95° C., at this temperature ECD spectrum was measured. Then the sample was cooled to 25° C., allowed to stabilize for 10 min and then ECD spectrum was measured again. Then, the melting curve of ECD oligonucleotide at 263 nm was measured in the temperature range 25-95° C. and for verification of the stability of the sample spectra the spectra were measured again at 95 and 25° C. Under the oil layer ligand solution (cligand=5 μmol l^−1) was added to a solution of oligonucleotide, the sample was thoroughly mixed and ECD spectrum measured at 25° C., the melting curve was obtained and again control spectra were measured at 95 and 25° C.
Decomposition of the G-quadruplex structure in the presence of ligands under influence of temperature was monitored at the wavelength corresponding to the maximum difference in signal intensities of ECD oligonucleotide/ligand at 25 and 95° C., i.e. at 263 nm. Thermal stability of G-quadruplex was monitored in the range of 25 to 95° C. and in a molar ratio of oligonucleotide:ligand=1:1. Example of influence of the studied ligand on the stability of G-quadruplex formed from c-Myc27 oligonucleotide is shown in FIG. 2.
The degree of G-quadruplex stabilization was expressed as change of melting temperature caused by the presence of G-quadruplex ligands (ΔTm): ΔTm=Tm,oligonucleotide+ligand−Tm,oligonucleotide (1), • where Tm,oligonucleotide+ligand is melting temperature of molecular system comprising the oligonucleotide and the ligand and Tm,oligonucleotide, the melting temperature of the oligonucleotide itself. Tab. 4 summarizes the changes in melting temperatures of c-Myc27 oligonucleotide G-quadruplex in the presence of studied ligands.

G-quadruplex = settings: background statement; cited from earlier work
[4] = Phase II clinical trials; cited from earlier work

| Structure (SMILES) | ΔTm (° C.) Fmyc27T/ds26 (° C.) [1] | ΔTm (° C.) Fmyc27T [1] | ΔTm (° C.) F21T/ds26 [2] | ΔTm (° C.) F21T [2] | ΔTm (° C.) [3] | selectivity towards G-quadruplex in presence of DNA duplex (G-quadruplex) | bioavailability [4] |
| --- | --- | --- | --- | --- | --- | --- | --- |
| Cc1[nH]c2ccccc2c1/C=C/c1cc[n+]2c(c1)-c1c(c(C)c(C)c3c1-c1cc(/C=C/c4c(C)[nH]c5ccccc45)cc[n+]1CC3)CC2 [PDB-C10-11, 8,9-dimethyl-2,15-bis((E)-2-(2-methyl-1H-indol-3-yl)vinyl)-6,7,10,11-tetrahydrodipyrido[2,1-a:1′,2′-k][2,9]phenanthroline-5,12-diium trifluoromethanesulfonate] | 13.1 °C | 14.2 °C | 10.7 °C | 13.0 °C | 9.8 °C | – | – |
| C(=C\c1c(-c2ccccc2)[nH]c2ccccc12)/c1cc[n+]2c(c1)-c1c(ccc3c1-c1cc(/C=C/c4c(-c5ccccc5)[nH]c5ccccc45)cc[n+]1CC3)CC2.O=S(=O)([O-])C(F)(F)F.O=S(=O)([O-])C(F)(F)F [PDA-C15-8, 2,15-bis((E)-2-(2-phenyl-1H-indol-3-yl)vinyl)-6,7,10,11-tetrahydrodipyrido[2,1-a:1′,2′-k][2,9]phenanthroline-5,12-diium trifluoromethanesulfonate] | 19.9 °C | 18.8 °C | 17.3 °C | 17.2 °C | 10.1 °C | – | – |
| Cc1c(C)c2c(c3c1CC[n+]1ccc(/C=C/c4c[nH]c5ncccc45)cc1-3)-c1cc(/C=C/c3c[nH]c4ncccc34)cc[n+]1CC2 [PDB-C8-14, 2,15-bis((E)-2-(1H-pyrrolo[2,3-b]pyridin-3-yl)vinyl)-8,9-dimethyl-6,7,10,11-tetrahydrodipyrido[2,1-a:1′,2′-k][2,9]phenanthroline-5,12-diium trifluoromethanesulfonate] | 9.3 °C | 11.5 °C | 5.0 °C | 8.4 °C | 5.0 °C | – | – |
| Brc1ccc2[nH]cc(/C=C/c3cc[n+]4c(c3)-c3c(ccc5c3-c3cccc[n+]3CC5)CC4)c2c1.O=S(=O)([O-])C(F)(F)F.O=S(=O)([O-])C(F)(F)F [LSA-C9-30, (E)-2-(2-(5-bromo-1H-indol-3-yl)vinyl)-6,7,10,11-tetrahydrodipyrido[2,1-a:1′,2′-k][2,9]phenanthroline-5,12-diium trifluoromethanesulfonate] | 8.2 °C | 10.5 °C | 5.5 °C | 8.6 °C | 6.4 °C | – | – |
| Cc1[nH]c2ccccc2c1/C=C/c1cc[n+]2c(c1)-c1c(ccc3c1-c1cc(/C=C/c4c(C)[nH]c5ccccc45)cc[n+]1CC3)CC2.O=S(=O)([O-])C(F)(F)F.O=S(=O)([O-])C(F)(F)F [PDA-C10-11, 2,15-bis((E)-2-(2-methyl-1H-indol-3-yl)vinyl)-6,7,10,11-tetrahydrodipyrido[2,1-a:1′,2′-k][2,9]phenanthroline-5,12-diium trifluoromethanesulfonate] | 13.9 °C | 14.9 °C | 12.3 °C | 12.9 °C | 8.2 °C | – | – |
| C[n+]1ccc(-c2c3nc(c(-c4cc[n+](C)cc4)c4ccc([nH]4)c(-c4cc[n+](C)cc4)c4ccc([nH]4)c(-c4cc[n+](C)cc4)c4nc2C=C4)C=C3)cc1 [TMPyP4] | – | – | – | – | – | low selectivity | – |
| CN1CCC[C@H]1CCNC(=O)c1cn2c3c(c(N4CCC(c5cnccn5)C4)c(F)cc3c1=O)Oc1cc3ccccc3cc1-2 (stereo partly drawn) [quarfloxin] | – | – | – | – | – | – | poor bioavailability |
